Tests used:
TGFβRII = TGFβRII expression in UV irradiated dermal fibroblasts (Western analysis); type: cell-based, human; conditions: 1, 2.5, 5 and 10 μM added immediately after UV; 5 h post UV; primary fibroblasts; FIG. 3B
Experimental: The influence of the polypeptide IK34720 (SEQ ID NO: 3) on TGFβRII phosphorylation was assessed using the following protocol.
Human skin dermal fibroblasts were cultured from keratome biopsies of healthy adult human skin. Cells were between passages three and six. For UV irradiation, subconfluent cells were washed once with phosphate-buffered saline (PBS) and irradiated with UV. Immediately following irradiation, negative control (vehicle) or 1 μM, 2.5 μM, 5 μM and 10 μM of IK34720 (“1K” in FIG. 3B, SEQ ID NO: 3) were added to the cell cultures.
For Western analysis, nuclear extracts were prepared, membrane fractions were prepared and resolved on 8% SDS-polyacrylamide gel electrophoresis, transferred to polyvinylidene difluoride membrane, and reacted with primary antibodies. Blots were visualized and quantified.

[1] = test system: Cyclobutane pyrimidine dimers (CPDs) in primary keratinocytes; assay: CPD detection by IHC in keratinocytes after UV-irradiation in vitro; type: cell-based
Experimental: An in vitro assay was conducted allowing for densitometry analysis of CPD detection by IHC in keratinocytes 3 h following UV-irradiation in accordance with the following protocol.
Keratinocytes were harvested and cultured as described above at Example 2. Samples were split into two groups, being UV irradiated (UVR) and non-UV irradiated (SHAM). UV-irradiation was performed by solar simulated UV-irradiation for cells, also as described above at Example 2. Irradiation solution was PBS containing 5 mM D-glucose. […]
Harvested keratinocytes were plated on poly-D-lysine coated coverslips in 96 well plates and irradiated (or sham treated) as described above in at Example 2 in PBS containing 5 mM D-glucose. Keratinocytes were fixed 3 h after UV-irradiation. Immunohistochemistry and image analysis were performed as described previously (Gordon-Thomson et al., Photochem Photobiol Sci, 2012, 11(12):1837-47; Gupta et al., vide supra, Rybchyn MS et al., J Invest Dermatol, 2018;138(5):1146-1156). Thymine dimers were detected using the anti-thymine dimer antibody (Sigma-Aldrich, Mo., USA) at 10 μg/mL, and quantified as an index of CPD, as previously described (Douki T and Cadet J, Biochemistry,2001, 40(8):2495-501).

[2] = test system: apoptotic cells in human skin explants; assay: Apoptotic sunburn cells in human skin explants after UV-irradiation; type: cell-based; conditions: 500 μM
Experimental: FIGS. 14 and 15 illustrate the effect of the polypeptide IK34720 (SEQ ID NO: 3) on the number of apoptotic cells in human skin explants.
Skin explants were cultured irradiated and treated as described above for CPD, and subsequent to treatment were stained and quantified as described for Example 6.

[3] = molecular target: T1, Human rheumatoid synovial fibroblast MMP-1 (Homo sapiens, UniProt P03956); assay: MMP-1 activity in vitro (fluorogenic substrate); type: biochemical; conditions: 5, 10, 800 and 1000 μM; 8 nM activated enzyme; pH 7.2; FIG. 16
T1 construct: endogenous in cells; host or cells: human rheumatoid synovial fibroblasts (native proenzyme isolated from these cells)
T1 sequence (P03956 100-469): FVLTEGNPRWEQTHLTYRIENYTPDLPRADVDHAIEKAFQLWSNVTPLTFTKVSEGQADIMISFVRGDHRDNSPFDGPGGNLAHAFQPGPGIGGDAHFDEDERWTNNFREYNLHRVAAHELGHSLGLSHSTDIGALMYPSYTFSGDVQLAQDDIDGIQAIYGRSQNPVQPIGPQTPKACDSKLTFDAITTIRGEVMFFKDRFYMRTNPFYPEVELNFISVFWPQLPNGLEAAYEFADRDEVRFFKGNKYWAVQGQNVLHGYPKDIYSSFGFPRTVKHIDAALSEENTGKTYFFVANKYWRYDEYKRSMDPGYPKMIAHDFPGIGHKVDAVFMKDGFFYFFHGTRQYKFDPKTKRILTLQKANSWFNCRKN
Experimental: The effect of the polypeptide IK34720 (SEQ ID NO: 3) on MMP-1 activity was evaluated using the following protocol.
Human rheumatoid synovial fibroblast MMP-1 proenzyme, activated with APMA for 60 minutes at 37° C., was used as an active enzyme. The polypeptide IK34720 (SEQ ID NO: 3) at a concentration of 5 μM. 10 μM 800 μM and 1000 μM was pre-incubated with 8 nM activated enzyme in modified MOPS buffer pH 7.2 for 60 minutes at 37° C. The reaction was initiated by addition of […] Mca-Pro-Leu-Gly-Leu-Dap-Ala-Arg followed by a 2 hour incubation period. Determination of the amount of Mca-Pro-Leu-Gly formed was read spectrofluorimetrically at 340 nm/400 nm.

MMP1 = MMP1 expression in human skin explants after UV-irradiation (immunohistochemistry); type: cell-based
Experimental: The effect of the polypeptide IK34720 (SEQ ID NO: 3) on MMP-1 activity in human skin was evaluated using the following protocol.
FIGS. 17 and 18 illustrate the effect of the polypeptide IK34720 (SEQ ID NO: 3) on MMP1 expression, in accordance with the following protocol.
Human skin (2× human explant tissues) removed at elective surgery was cleaned, dissected and cut into pieces of approx. 5mm×5mm. Each piece was placed in a well of a 96 well plate, with individual plates prepared to assess the effects 3 hrs post treatment. Skin was subjected to UV-radiation from solar-simulated UV source for 1.5 h (UVR), or non-irradiation (SHAM), and treated immediately after with a vehicle control, Calcitriol (1 nM) or the polypeptide IK34720 (SEQ ID NO: 3) at concentrations of 50 μM, 250 μM or 500 uM. In FIG. 17, IK50, IK250 and IK500 as μM concentrations refers to 15 μg, 75 μg and 150 μg of IK34720 per 120 μL culture medium/explant, respectively.
Samples harvested at 3 hrs were fixed, sectioned, immunohistochemically stained for MMP1 and quantified for MMP1 expression, by expressing epidermal area stained for MMP1 as a function of total epidermal area examined.

RSKAKNPLYRRRRRRRRR [IK34720, 18-residue polypeptide: … with a C-terminal polyarginine region of 8 arginines]
TGFβRII expression (TGFβRII): restored TGFβRII expression in UV treated cells
CPD levels vs keratinocytes treated with Calcitriol ([1]; 5 μM, 3 h after UV): comparable reduction in CPD levels
CPD levels vs vehicle-treated UV-irradiated keratinocytes ([1]; 5 μM, 3 h after UV): statistically significant (*p<0.05) reduction in CPD levels
CPD formation (average intensity of CPD staining) vs positive control ([1]; 10 uM, FIG. 8B): more effective at inhibiting CPD formation than the positive control 1,25 D
CPD levels ([1]; 0.5, 1, 2.5 or 5 μM after ssUV, keratinocytes fixed 3 h after UV, FIGS. 7 and 8): decreases CPD levels in primary keratinocytes exposed to solar simulated UV-irradiation in a dose dependent manner
number of apoptotic cells ([2]; 3 hrs post UV-irradiation, FIG. 14): statistically significantly reduces the number of apoptotic cells
number of apoptotic cells ([2]; 24 hrs post UV-irradiation, FIG. 15): statistically significantly reduces the number of apoptotic cells
MMP-1 activity [3]: inhibits MMP-1 activation in a dose dependent manner
percentage of MMP1 positive cells (MMP1; 500 μM, 3 hrs, FIG. 18): statistically significantly reduced
cells staining for MMP-1 (MMP1; 3 hrs post irradiation/treatment, Calcitriol 1 nM, IK34720 50, 250 or 500 uM, FIG. 17): fewer stained cells

Reference: patent publication US20220409510A1, “Polypeptides And Methods For Improving Skin Conditions” (Interk Peptide Therapeutics Limited, priority 2018, published 2022)
